{"source": "patent US9415011B1", "about": "“Method for treatment of liver cancer and inhibition of metastasis with CXC-chemokine-receptor 4-targeted nanoparticle” (National Tsing Hua University, priority 2015, dated 2016)", "key": {"[1]": {"test": "In vivo pharmacokinetics of C6 in blood", "set-up": "species or system C3H mice", "details": "2 mg/kg, mice with orthotopic HCA-1 tumor", "description": "To examine the pharmacokinetics profile in vivo, firstly, C6-loaded lipid-coated PLGA nanoparticle without AMD3100 modification (DOP-C6) and C6-loaded AMD3100-modified lipid-coated PLGA nanoparticle (ADOP-C6) were prepared according to the method set forth above. Then, C3H mice with orthotopic HCA-1 tumor were administered with free C6, DOP-C6 and ADOP-C6 at a dosage of 2 mg/kg. 40 μl of blood was collected from the tail artery and mixed with 10 μL of EDTA (50 mM) at different periods of time. The fluorescence intensity was measured by the plate reader (Fluoroskan Ascent FL, Thermo Scientific) at an excitation wavelength of 485 nm and an emission wavelength of 538 nm C6 concentration was normalized and calculated from a standard curve obtained by spiking known amounts of free C6 or C6-loaded nanoparticles in blood obtained from uninjected mice."}, "orthotopic HCA-1 tumor [2]": {"tested_on": "orthotopic HCA-1 tumor", "test": "In vivo tumor uptake of fluorescence-labeled siRNA", "set-up": "species or system mice", "details": "intravenous injection, after 4 hours", "description": "Next, the uptake of the fluorescence-labeled siRNA in orthotopic HCA-1 tumor models via intravenous injection was evaluated after 4 hours."}, "VEGF [3]": {"tested_on": "VEGF", "test": "VEGF expression by western blot", "format": "cell-based, murine", "details": "HCA-1", "text": "(§1) Firstly, cells treated with free control siRNA were defined as Control group, while cells treated with free anti-VEGF siRNA were defined as Comparative group. Cells treated with anti-VEGF siRNA-loaded lipid-coated nanoparticle without AMD3100 modification were defined as Experimental group 1, while cells treated with anti-VEGF siRNA-loaded AMD3100-modified lipid-coated nanoparticle were defined as Experimental group 2."}, "VEGF [4]": {"tested_on": "VEGF", "test": "VEGF expression by western blot", "format": "cell-based, human", "details": "JHH-7", "text": "as §1"}, "JHH-7 cells [5]": {"tested_on": "JHH-7 cells", "test": "In vitro cytotoxicity, MTT assay", "format": "cell-based, human", "details": "JHH-7, 48 hours, sorafenib 0.25 μM, AMD3100 0.2 μM", "description": "(§2) For cytotoxicity examination of the CXCR4-targeted lipid-coated PLGA nanoparticle of the present invention, HCA-1 or JHH-7 cells were seeded in 96-well transparent plates (Costar, Ill., USA) at a density of 1000 cells/well in a medium and were incubated for 12 hours. After confluency reached 10%, the medium was replaced with RPMI-1640 media containing DOPSor, ADOPSor, free DOPA, ADOP, or DOPSor with free AMD3100 at the equivalent sorafenib concentration of 0.25 μM. […] All cells were incubated for 48 hours. After incubation for another 3 hours, MTT assay was utilized to subsequently measure the cell viability. The absorbance of the wells was measured by Multiskan (Thermo, USA) at 570 nm and background absorbance was subtracted from all data. The percentage of cell viability was calculated by normalization of all values to the control group."}, "HCA-1 cells [6]": {"tested_on": "HCA-1 cells", "test": "In vitro cytotoxicity, MTT assay", "format": "cell-based, murine", "details": "HCA-1, 48 hours, sorafenib 0.25 μM, AMD3100 0.2 μM", "description": "as §2"}, "orthotopic HCA-1 tumor [7]": {"tested_on": "orthotopic HCA-1 tumor", "test": "Syngeneic orthotopic murine HCC model, sorafenib and AMD3100-modified nanoparticle", "format": "in vivo, C3H mice", "details": "sorafenib 50 mg/kg daily for 14 days", "text": "4 to 6-week-old male C3H/HeNCrNarl mice (weight: 25 g) were purchased from National Laboratory Animal Center (Taipei, Taiwan). In order to create hepatocellular carcinoma model, every mouse was orthotopically injected with HCA-1 cells (10^6 cells per mouse) in liver.\nOn the other hand, HCA-1 cells were intrahepatic ally implanted into C3H mice to establish a syngeneic orthotopic murine HCC model. For evaluation of mean vessel density (MVD) and hypoxic induction, mice without any treatment were defined as Negative control group, while mice treated with free sorafenib alone were defined as Positive control group. Mice treated with free sorafenib and free AMD3100 were defined as Comparative. For the experimental groups, mice treated with AMD3100-modified lipid-coated nanoparticle of the present invention were defined as Experimental group 1, while mice treated with sorafenib and AMD3100-modified lipid-coated nanoparticle of the present invention together were defined as Experimental group 2.\nAfter HCC tumors were established, mice were treated according to the above mentioned Positive control group, Comparative group, Experimental group 1, and Experimental group 2 with sorafenib given at a dose of 50 mg/kg daily for 14 days. […] On the other hand, the change in SDF1α expression as a consequence of treatment-induced hypoxia was examined."}, "HCA-1 cells [8]": {"tested_on": "HCA-1 cells", "test": "Cell viability under sorafenib with recombinant SDF1α", "format": "cell-based, murine", "details": "HCA-1, in the presence of sorafenib", "text": "(§3) To examine cell viability, cells without any treatment were defined as Negative control group, while cells treated with free sorafenib alone were defined as Positive control group. Meanwhile, cells treated with sorafenib in the presence of recombinant SDF1α were defined as Comparative group 1, while cells treated with free sorafenib and free AMD3100 were defined as Comparative group 2. Regarding the experimental groups, cells treated with sorafenib-loaded lipid-coated nanoparticle without AMD3100 modification were defined as Experimental group 1, while cells treated with sorafenib-loaded AMD3100-modified lipid-coated nanoparticle were defined as Experimental group 2.\n(§4) To determine whether the SDF1α/CXCR4 axis mediates HCC resistance to sorafenib treatment, both murine HCC (HCA-1) and human HCC (JHH-7) cell lines were firstly exposed to recombinant SDF1α in the presence of sorafenib."}, "JHH-7 cells [9]": {"tested_on": "JHH-7 cells", "test": "Cell viability under sorafenib with recombinant SDF1α", "format": "cell-based, human", "details": "JHH-7, in the presence of sorafenib", "text": "as §3, §4"}}, "data": [{"compound": "CCN(CC)c1ccc2cc(-c3nc4ccccc4s3)c(=O)oc2c1", "note": "[free C6, coumarin 6]", "values": [{"measurement": "C6 in blood after 1 hour", "setting": "[1]", "result": "cleared rapidly from the blood after 1 hour"}, {"measurement": "C6 in blood after 4 hours", "setting": "[1]", "result": "almost cleared out after 4 hours"}]}, {"compound": "free anti-VEGF siRNA: anti-VEGF siRNA with sequence 5′-AUGUGAAUGCAGACCAAAGAA-3′ (chemistry not given here)", "values": [{"measurement": "uptake of fluorescence-labeled siRNA in orthotopic HCA-1 tumor", "setting": "orthotopic HCA-1 tumor [2]", "result": "intracellular uptake can hardly be detected"}, {"measurement": "VEGF expression", "setting": "VEGF [3]", "result": "no suppression of VEGF expression"}, {"measurement": "VEGF expression", "setting": "VEGF [4]", "result": "no suppression of VEGF expression"}]}, {"compound": "c1cc(CN2CCCNCCNCCCNCC2)ccc1CN1CCCNCCNCCCNCC1", "note": "[AMD3100]", "values": [{"measurement": "cytotoxicity / cell viability", "setting": "JHH-7 cells [5]", "result": "did not have a cytotoxic effect"}, {"measurement": "cytotoxicity / cell viability", "setting": "HCA-1 cells [6]", "result": "did not have a cytotoxic effect"}]}, {"compound": "CNC(=O)c1cc(Oc2ccc(NC(=O)Nc3ccc(Cl)c(C(F)(F)F)c3)cc2)ccn1", "note": "[sorafenib, Sorafenib]", "values": [{"measurement": "carbonic anhydrase IX (CAIX) expression (hypoxia)", "setting": "orthotopic HCA-1 tumor [7]", "result": "increase of carbonic anhydrase IX (CAIX) expression"}, {"measurement": "increase in SDF1α expression in HCA-1 tumor tissues", "setting": "orthotopic HCA-1 tumor [7]", "result": 3, "unit": "fold"}, {"measurement": "increase in number of F4/80+ macrophages", "setting": "orthotopic HCA-1 tumor [7]", "result": "over 3 fold"}, {"measurement": "lung metastasis", "setting": "orthotopic HCA-1 tumor [7]", "result": "Neither the Positive control group nor the Comparative group showed a reduction in metastasis formation"}, {"measurement": "mean vessel density (MVD)", "setting": "orthotopic HCA-1 tumor [7]", "result": "significant reduction of MVD"}, {"measurement": "tumor growth", "setting": "orthotopic HCA-1 tumor [7]", "result": "moderate tumor growth inhibitory effect"}]}, {"compound": "SDF1α", "values": [{"measurement": "cell viability", "setting": "HCA-1 cells [8]", "result": "increased the viability"}, {"measurement": "cell viability", "setting": "JHH-7 cells [9]", "result": "increased the viability"}]}]}
